Data taken from US20020013314A1, “3,4-dihydro-2H-benzo[1,4]oxazine inhibitors of factor Xa” (priority 2000, published 2002).
pIC50: −log10 of the molar value.

Tests used:
[1] = target: prothrombinase complex (Homo sapiens, UniProt P00742); test: prothrombinase inhibition assay (plasma free system, Chromozym TH); type: biochemical
Experimental: The prothrombinase inhibition assay is performed in a plasma free system with modifications to the method described by Sinha, U. et al., Thromb. […] Specifically, the activity of the prothrombinase complex is determined by measuring the time course of thrombin generation using the p-nitroanilide substrate Chromozym TH. […] Aliquots from the complex-inhibitor mixture are added to prothrombin (1 nM) and Chromozym TH (0.1 mM). […] Eight different concentrations of inhibitor are assayed in duplicate. A standard curve of thrombin generation by an equivalent amount of untreated complex is used for determination of percent inhibition.

[2] = target: thrombin (Homo sapiens, UniProt P00734); test: thrombin amidolytic assay (Chromozym TH)
Experimental: (§1) In the assays for thrombin, prothrombinase and factor Xa, a synthetic chromogenic substrate is added to a solution containing test compound and the enzyme of interest and the residual catalytic activity of that enzyme is determined spectrophotometrically. The IC50 of a compound is determined from the substrate turnover. […] The factor Xa and thrombin assays are performed at room temperature, in 0.02 M Tris·HCl buffer, pH 7.5, containing 0.15 M NaCl.

[3] = target: factor Xa (Homo sapiens, UniProt P00742); test: factor Xa amidolytic assay (chromogenic substrate S-2765)
Experimental: as §1

[4] = Table 3, probe of regiochemistry

Sequence of factor Xa (P00742 41-179 limits assumed): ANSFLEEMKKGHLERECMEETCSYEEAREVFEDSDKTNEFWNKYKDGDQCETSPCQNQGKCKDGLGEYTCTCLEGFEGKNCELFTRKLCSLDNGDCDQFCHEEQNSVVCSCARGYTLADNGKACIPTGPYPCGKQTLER
Sequence of factor Xa (P00742 235-488 limits assumed): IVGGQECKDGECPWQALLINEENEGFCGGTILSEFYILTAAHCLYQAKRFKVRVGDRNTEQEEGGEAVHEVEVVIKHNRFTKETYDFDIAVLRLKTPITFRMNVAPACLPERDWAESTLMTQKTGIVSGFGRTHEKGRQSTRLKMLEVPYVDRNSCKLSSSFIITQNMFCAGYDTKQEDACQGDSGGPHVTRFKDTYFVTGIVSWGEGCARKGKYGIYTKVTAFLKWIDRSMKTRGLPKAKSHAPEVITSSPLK
Sequence of prothrombinase complex (P00742 41-179 limits assumed): as the sequence (P00742 41-179 limits assumed) above
Sequence of prothrombinase complex (P00742 235-488 limits assumed): as the sequence (P00742 235-488 limits assumed) above
Sequence of prothrombinase complex (P12259 29-737 partner limits assumed): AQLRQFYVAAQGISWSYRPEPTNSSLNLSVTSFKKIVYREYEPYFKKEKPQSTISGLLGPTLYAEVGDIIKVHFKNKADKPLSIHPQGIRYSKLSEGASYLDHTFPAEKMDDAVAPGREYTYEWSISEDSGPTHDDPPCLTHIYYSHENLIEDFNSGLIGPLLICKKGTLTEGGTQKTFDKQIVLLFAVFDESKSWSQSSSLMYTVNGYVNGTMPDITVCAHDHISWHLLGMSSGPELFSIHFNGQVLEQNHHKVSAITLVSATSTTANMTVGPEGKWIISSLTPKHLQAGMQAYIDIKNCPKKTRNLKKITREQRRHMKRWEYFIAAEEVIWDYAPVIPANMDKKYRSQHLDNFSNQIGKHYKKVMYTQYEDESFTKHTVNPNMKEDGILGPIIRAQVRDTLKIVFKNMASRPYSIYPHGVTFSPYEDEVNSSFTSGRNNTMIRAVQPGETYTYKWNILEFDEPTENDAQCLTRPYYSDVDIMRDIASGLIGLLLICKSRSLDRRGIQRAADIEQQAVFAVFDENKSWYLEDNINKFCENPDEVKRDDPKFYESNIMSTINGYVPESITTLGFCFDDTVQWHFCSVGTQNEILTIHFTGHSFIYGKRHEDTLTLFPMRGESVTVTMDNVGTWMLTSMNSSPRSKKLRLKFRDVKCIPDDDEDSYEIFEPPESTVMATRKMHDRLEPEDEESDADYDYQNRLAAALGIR
Sequence of prothrombinase complex (P12259 1574-2224 partner limits assumed): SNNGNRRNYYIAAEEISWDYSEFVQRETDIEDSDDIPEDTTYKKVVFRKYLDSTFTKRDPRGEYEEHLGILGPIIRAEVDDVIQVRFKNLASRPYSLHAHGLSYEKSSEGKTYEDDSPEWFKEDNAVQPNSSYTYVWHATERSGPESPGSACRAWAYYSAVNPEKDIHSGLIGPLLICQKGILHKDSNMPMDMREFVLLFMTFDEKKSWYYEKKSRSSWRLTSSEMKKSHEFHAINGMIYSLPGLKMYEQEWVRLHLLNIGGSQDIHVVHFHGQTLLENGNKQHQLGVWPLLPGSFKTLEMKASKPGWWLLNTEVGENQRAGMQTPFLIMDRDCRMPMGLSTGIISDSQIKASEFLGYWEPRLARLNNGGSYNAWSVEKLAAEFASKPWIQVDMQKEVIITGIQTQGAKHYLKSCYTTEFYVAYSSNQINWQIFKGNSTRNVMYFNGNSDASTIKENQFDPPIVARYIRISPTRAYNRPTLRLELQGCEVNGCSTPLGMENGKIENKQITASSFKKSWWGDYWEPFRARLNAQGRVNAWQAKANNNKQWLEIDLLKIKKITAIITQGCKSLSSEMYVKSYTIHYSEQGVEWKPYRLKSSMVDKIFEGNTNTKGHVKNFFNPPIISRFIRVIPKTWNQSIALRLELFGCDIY

SMILES	IC50 [1, 4] [nM]	pIC50 [2]	pIC50 [3]	IC50 ([1]; Table 4) [nM]	IC50 ([1]; Table 5) [nM]	IC50 ([1]; Table 6, monoamidine) [nM]
CC(=N)N1CCC(Oc2ccc3c(c2)OCC(=O)N3Cc2cccc(-c3cccc(C(=N)N)c3)c2)CC1 [Cmpd 23]	214	4.96	7.42	–	–	–
CC(=N)N1CCC(Oc2ccc3c(c2)OCC(=O)N3Cc2ccc3ccc(C(=N)N)cc3c2)CC1 [Cmpd 24]	–	3.48	–	–	–	–
CC(=N)N1CCC(Oc2ccc3c(c2)N(Cc2cccc(-c4cccc(C(=N)N)c4)c2)C(=O)CO3)CC1 [Cmpd 25]	934	5.27	6.46	–	–	–
CC(=N)N1CCC(Oc2ccc3c(c2)N(Cc2ccc4ccc(C(=N)N)cc4c2)C(=O)CO3)CC1 [Cmpd 26]	352	4.09	6.72	–	–	–
CC(=N)N1CCC(Oc2ccc3c(c2)OCC(=O)N3Cc2cc(-c3cccc(C(=N)N)c3)no2)CC1 [Cmpd 27]	–	3.60	7.28	159	–	–
CC(=N)N1CCC(Oc2ccc3c(c2)OCC(=O)N3Cc2cc3ccc(C(=N)N)cc3n2C)CC1 [Cmpd 28]	–	–	8.70	6.6	–	–
N=C(N)c1ccc(C(=O)Nc2ccc3c(c2)OCC(=O)N3Cc2ccc3ccc(C(=N)N)cc3c2)cc1 [Cmpd 31]	–	3.69	5.00	–	67500	–
N=C(N)c1ccc2ccc(CN3C(=O)COc4cc(NS(=O)(=O)c5ccccc5)ccc43)cc2c1 [Cmpd 32]	–	4.46	4.66	–	55200	–
COc1ccc(S(=O)(=O)Nc2ccc3c(c2)OCC(=O)N3Cc2ccc3ccc(C(=N)N)cc3c2)cc1 [Cmpd 33]	–	4.46	4.42	–	81000	–
N=C(N)c1ccc2ccc(CN3C(=O)COc4cc(NS(=O)(=O)c5cccc6ncccc56)ccc43)cc2c1 [Cmpd 34]	–	3.96	4.71	–	364000	–
N=C(N)c1ccc2ccc(CN3C(=O)COc4cc(NS(=O)(=O)c5ccc6cc(Br)ccc6c5)ccc43)cc2c1 [Cmpd 35]	–	4.08	3.57	–	98000	–
N=C(N)c1ccc2ccc(CN3C(=O)COc4ccc(-c5ccccc5S(N)(=O)=O)cc43)cc2c1 [Cmpd 36]	–	4.57	7.17	–	–	2000
N=C(N)c1cccc(-c2cccc(CN3C(=O)COc4ccc(-c5ccccc5S(N)(=O)=O)cc43)c2)c1 [Cmpd 37]	–	5.06	6.05	–	–	3000
Cc1cc(CN2C(=O)COc3cc(-c4ccccc4S(N)(=O)=O)ccc32)n(-c2cccc(C(=N)N)c2)n1 [Cmpd 38]	–	< 4.96	< 4.96	–	–	> 11000
